Test results published in patent publication US8507010B2, “Compositions comprising quinazoline derivatives” (Shanghai Allist Pharmaceuticals, Inc., priority 2008, dated 2013).

Experiments:
[1] = system: human epidermoid squamous carcinoma cell A431; conditions: stated in CN 200610023526.7 / WO 2007/082434; cited from earlier work
[2] = biological target: erbB-2 kinase (Homo sapiens, UniProt P04626); conditions: stated in CN 200610023526.7 / WO 2007/082434; cited from earlier work
[3] = system: human breast cancer cell BT-474; conditions: stated in CN 200610023526.7 / WO 2007/082434; cited from earlier work
[4] = in vivo; conditions: male, SD, rat
Method: Intragastric administration (ig): 16 healthy SD rats (Shanghai Super-B&K Laboratory Animal Corp. Ltd., grade SPF), male, weighted 200-250 g, randomly divided into four groups, were each administered intragastrically with a drug: the compound prepared according to Example 1 (21.68 mg/kg), crystalline form A, crystalline form B, or crystalline form C (30 mg/kg) of p-toluenesulfonate of said compound. The blood samples were collected at 0.5 h, 1.0 h, 1.5 h, 2.0 h, 3.0 h, 5.0 h, 7.0 h, 9.0 h, 12 h, and 24 h after administration, which were then isolated to prepare the plasma. The concentrations of the drugs in the plasma were determined by means of liquid phase chromatography/tandem mass spectrometer (Agilent 1200LC/6410B), and the concentration-time curve was obtained.

[5] = system: human epidermoid squamous carcinoma cell A431; conditions: stated in CN 200610023526.7 / WO 2007/082434; cited from earlier work; remark: listed apart in the source

Chain of erbB-2 kinase (P04626 23-1255): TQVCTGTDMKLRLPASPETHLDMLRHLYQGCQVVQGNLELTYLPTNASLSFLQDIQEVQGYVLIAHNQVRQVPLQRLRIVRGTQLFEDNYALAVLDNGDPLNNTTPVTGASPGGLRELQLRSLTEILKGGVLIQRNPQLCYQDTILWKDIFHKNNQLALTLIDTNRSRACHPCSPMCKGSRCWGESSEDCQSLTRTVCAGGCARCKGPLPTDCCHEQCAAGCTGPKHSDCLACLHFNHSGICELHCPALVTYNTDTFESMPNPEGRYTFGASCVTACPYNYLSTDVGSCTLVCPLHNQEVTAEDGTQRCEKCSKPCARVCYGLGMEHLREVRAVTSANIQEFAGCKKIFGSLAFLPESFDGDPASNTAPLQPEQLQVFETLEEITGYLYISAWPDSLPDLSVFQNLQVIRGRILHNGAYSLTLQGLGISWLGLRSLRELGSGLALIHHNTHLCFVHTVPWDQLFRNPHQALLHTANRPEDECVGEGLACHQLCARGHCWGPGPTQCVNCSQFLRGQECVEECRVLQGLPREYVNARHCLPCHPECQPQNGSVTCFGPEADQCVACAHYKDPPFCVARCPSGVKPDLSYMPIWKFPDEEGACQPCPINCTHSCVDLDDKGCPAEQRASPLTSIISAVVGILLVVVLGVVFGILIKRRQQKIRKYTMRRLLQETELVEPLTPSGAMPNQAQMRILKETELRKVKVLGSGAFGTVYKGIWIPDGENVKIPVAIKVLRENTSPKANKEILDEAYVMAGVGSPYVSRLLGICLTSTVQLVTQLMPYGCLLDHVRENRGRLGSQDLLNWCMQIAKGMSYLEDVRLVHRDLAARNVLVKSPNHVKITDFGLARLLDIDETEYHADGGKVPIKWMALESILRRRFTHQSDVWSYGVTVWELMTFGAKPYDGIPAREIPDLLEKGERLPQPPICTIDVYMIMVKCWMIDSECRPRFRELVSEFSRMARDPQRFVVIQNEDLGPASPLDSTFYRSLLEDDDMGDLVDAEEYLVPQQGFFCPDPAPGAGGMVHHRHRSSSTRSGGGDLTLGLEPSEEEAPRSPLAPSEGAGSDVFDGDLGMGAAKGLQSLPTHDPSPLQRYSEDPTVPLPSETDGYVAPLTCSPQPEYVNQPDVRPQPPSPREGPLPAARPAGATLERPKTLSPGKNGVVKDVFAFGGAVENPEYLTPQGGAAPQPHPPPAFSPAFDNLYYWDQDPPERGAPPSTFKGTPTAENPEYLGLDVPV

C=CC(=O)Nc1ccc2ncnc(Nc3ccc(OCc4cccc(F)c4)c(Cl)c3)c2c1 [The compound of Example 1, N-{4-[3-chloro-4-(3-fluoro-benzyloxy)phenylamino]quinazolin-6-yl}-acrylamide]
inhibitory effect on growth of A431 cells (in words) [1]: remarkable inhibitory effect | inhibitory activity against erbB-2 kinase (in words) [2]: excellent inhibitory activity | inhibitory effect on growth of BT-474 cells (in words) [3]: remarkable inhibitory effect | bioavailability ([4]; absolute bioavailability): 0.95% | AUC(0-t) ([4]; po, 21.68 mg/kg, AUC0-t): 106 ng·h/mL | Cmax ([4]; po, 21.68 mg/kg, Cmax): 32 ng/mL | half-life ([4]; po, 21.68 mg/kg, T1/2): 1.81 h | Tmax ([4]; po, 21.68 mg/kg, Tmax): 0.75 h | anti-tumor effect on A431 grafted to a nude mouse (in words) [5]: obvious anti-tumor effect
